Results from patent US10004701B2, “Methods and compositions for treating infection” (UNIVERSITY OF ROCHESTER, priority 2012, dated 2018).
Read-outs that look alike come from different tables or passages of the source.

What was measured:
Test in all cases: AK assay 384-well format, Prestwick library screening
[1] = test system: E. faecium; type: cell-based, Enterococcus faecium; conditions: for AK-based Prestwick Library Screening Results: E. faecium (increase in extracellular AK activity): 384-well
[2] = test system: S. aureus strain USA300-0114; type: cell-based, Staphylococcus aureus; conditions: for AK-based Prestwick Library Screening Results: S. aureus (increase in extracellular AK activity): 384-well
[3] = test system: K. pneumoniae; type: cell-based, Klebsiella pneumoniae; conditions: for AK-based Prestwick Library Screening Results: K. pneumoniae (increase in extracellular AK activity): 384-well
[4] = test system: A. baumannii strain 98-37-09; type: cell-based, Acinetobacter baumannii; conditions: for AK-based Prestwick Library Screening Results: A. baumannii (increase in extracellular AK activity): 384-well
[5] = test system: P. aeruginosa; type: cell-based, Pseudomonas aeruginosa; conditions: for AK-based Prestwick Library Screening Results: P. aeruginosa (increase in extracellular AK activity): 384-well
[6] = test system: E. cloacae; type: cell-based, Enterobacter cloacae; conditions: for AK-based Prestwick Library Screening Results: E. cloacae (increase in extracellular AK activity): 384-well
[7] = test system: E. coli; type: cell-based, Escherichia coli; conditions: for AK-based Prestwick Library Screening Results: E. coli (increase in extracellular AK activity): 384-well
[8] = planktonic E. coli, 50 μM final drug concentration, […]
[9] = planktonic E. faecium, 50 μM final drug concentration, cutoff for positive-scoring molecules 3-fold increase
[10] = planktonic S. aureus, 50 μM final drug concentration, cutoff for positive-scoring molecules 3-fold increase
[11] = planktonic K. pneumoniae, 50 μM final drug concentration, cutoff for positive-scoring molecules 3-fold increase
[12] = planktonic A. baumannii, 50 μM final drug concentration, cutoff for positive-scoring molecules 3-fold increase
[13] = planktonic P. aeruginosa, 50 μM final drug concentration, cutoff for positive-scoring molecules 3-fold increase
[14] = planktonic E. cloacae, 50 μM final drug concentration, cutoff for positive-scoring molecules 3-fold increase
[15] = planktonic E. coli, 50 μM final drug concentration, cutoff for positive-scoring molecules 3-fold increase
[16] = 50 μM final drug concentration, planktonic, cutoff for positive 3-fold increase
[17] = 50 μM final drug concentration, planktonic, cutoff for positive-scoring molecules 3-fold increase
[18] = 50 μM final drug concentration, planktonic, […]

Cytisine (−)
AK-based Prestwick Library Screening Results, E. faecium (fold increase in extracellular AK activity) [1]: 1.0
AK-based Prestwick Library Screening Results, S. aureus (fold increase in extracellular AK activity) [2]: 1.0
AK-based Prestwick Library Screening Results, K. pneumoniae (fold increase in extracellular AK activity) [3]: 1.2
AK-based Prestwick Library Screening Results, A. baumannii (fold increase in extracellular AK activity) [4]: 1.4
AK-based Prestwick Library Screening Results, P. aeruginosa (fold increase in extracellular AK activity) [5]: 1.2
AK-based Prestwick Library Screening Results, E. cloacae (fold increase in extracellular AK activity) [6]: 1.5
AK-based Prestwick Library Screening Results, E. coli (fold increase in extracellular AK activity) [7]: 1.3

Deptropine citrate
AK-based Prestwick library screening result, E. faecium (fold increase in extracellular AK activity) ([1]; planktonic E. faecium, 50 μM final drug concentration, […]): 1.1
AK-based Prestwick library screening result, S. aureus (fold increase in extracellular AK activity) ([2]; planktonic S. aureus, 50 μM final drug concentration, […]): 1.1
AK-based Prestwick library screening result, K. pneumoniae (fold increase in extracellular AK activity) ([3]; planktonic K. pneumoniae, 50 μM final drug concentration, […]): 0.9
AK-based Prestwick library screening result, A. baumannii (fold increase in extracellular AK activity) ([4]; planktonic A. baumannii, 50 μM final drug concentration, […]): 1.3
AK-based Prestwick library screening result, P. aeruginosa (fold increase in extracellular AK activity) ([5]; planktonic P. aeruginosa, 50 μM final drug concentration, […]): 1.0
AK-based Prestwick library screening result, E. cloacae (fold increase in extracellular AK activity) ([6]; planktonic E. cloacae, 50 μM final drug concentration, […]): 1.6
AK-based Prestwick library screening result, E. coli (fold increase in extracellular AK activity) [7, 8]: 1.5

Dihydroergotamine tartrate
AK-based Prestwick Library Screening Results: E. faecium (increase in extracellular AK activity) [1, 9]: 1.0
AK-based Prestwick Library Screening Results: S. aureus (increase in extracellular AK activity) [2, 10]: 1.0
AK-based Prestwick Library Screening Results: K. pneumoniae (increase in extracellular AK activity) [3, 11]: 0.9
AK-based Prestwick Library Screening Results: A. baumannii (increase in extracellular AK activity) [4, 12]: 1.5
AK-based Prestwick Library Screening Results: P. aeruginosa (increase in extracellular AK activity) [5, 13]: 1.2
AK-based Prestwick Library Screening Results: E. cloacae (increase in extracellular AK activity) [6, 14]: 1.3
AK-based Prestwick Library Screening Results: E. coli (increase in extracellular AK activity) [7, 8]: 1.3

Dihydroergotoxine mesylate
AK-based Prestwick Library Screening Results, E. faecium (increase in extracellular AK activity) [1, 9]: 0.8
AK-based Prestwick Library Screening Results, S. aureus (increase in extracellular AK activity) [2, 10]: 0.4
AK-based Prestwick Library Screening Results, K. pneumoniae (increase in extracellular AK activity) [3, 11]: 0.5
AK-based Prestwick Library Screening Results, A. baumannii (increase in extracellular AK activity) [4, 12]: 0.5
AK-based Prestwick Library Screening Results, P. aeruginosa (increase in extracellular AK activity) [5, 13]: 0.4
AK-based Prestwick Library Screening Results, E. cloacae (increase in extracellular AK activity) [6, 14]: 0.6
AK-based Prestwick Library Screening Results, E. coli (increase in extracellular AK activity) [7, 15]: 0.6

Eburnamonine (−)
AK-based Prestwick Library Screening Results, E. faecium (fold increase in extracellular AK activity) [1, 16]: 1.1
AK-based Prestwick Library Screening Results, S. aureus (fold increase in extracellular AK activity) [2, 16]: 1.0
AK-based Prestwick Library Screening Results, K. pneumoniae (fold increase in extracellular AK activity) [3, 16]: 1.0
AK-based Prestwick Library Screening Results, A. baumannii (fold increase in extracellular AK activity) [4, 16]: 1.1
AK-based Prestwick Library Screening Results, P. aeruginosa (fold increase in extracellular AK activity) [5, 16]: 1.3
AK-based Prestwick Library Screening Results, E. cloacae (fold increase in extracellular AK activity) [6, 16]: 1.4
AK-based Prestwick Library Screening Results, E. coli (fold increase in extracellular AK activity) [7, 16]: 1.2

Foliosidine
AK-based Prestwick Library Screening Results, E. faecium (fold increase in extracellular AK activity) [1, 17]: 0.9
AK-based Prestwick Library Screening Results, S. aureus (fold increase in extracellular AK activity) [2, 17]: 0.7
AK-based Prestwick Library Screening Results, K. pneumoniae (fold increase in extracellular AK activity) [3, 17]: 0.8
AK-based Prestwick Library Screening Results, A. baumannii (fold increase in extracellular AK activity) [4, 17]: 0.8
AK-based Prestwick Library Screening Results, P. aeruginosa (fold increase in extracellular AK activity) [5, 17]: 0.8
AK-based Prestwick Library Screening Results, E. cloacae (fold increase in extracellular AK activity) [6, 17]: 1.0
AK-based Prestwick Library Screening Results, E. coli (fold increase in extracellular AK activity) [7, 18]: 0.9

Guanadrel sulfate
AK-based Prestwick Library Screening Results, E. faecium (fold increase in extracellular AK activity) [1, 18]: 1.0
AK-based Prestwick Library Screening Results, S. aureus (fold increase in extracellular AK activity) [2, 18]: 1.2
AK-based Prestwick Library Screening Results, K. pneumoniae (fold increase in extracellular AK activity) [3, 18]: 0.7
AK-based Prestwick Library Screening Results, A. baumannii (fold increase in extracellular AK activity) [4, 18]: 1.0
AK-based Prestwick Library Screening Results, P. aeruginosa (fold increase in extracellular AK activity) [5, 18]: 1.1
AK-based Prestwick Library Screening Results, E. cloacae (fold increase in extracellular AK activity) [6, 18]: 1.4
AK-based Prestwick Library Screening Results, E. coli (fold increase in extracellular AK activity) [7, 18]: 1.3

Ifenprodil tartrate
AK-based Prestwick Library Screening Results: E. faecium (increase in extracellular AK activity) [1, 9]: 1.0
AK-based Prestwick Library Screening Results: S. aureus (increase in extracellular AK activity) [2, 10]: 1.1
AK-based Prestwick Library Screening Results: K. pneumoniae (increase in extracellular AK activity) [3, 11]: 1.3
AK-based Prestwick Library Screening Results: A. baumannii (increase in extracellular AK activity) [4, 12]: 1.4
AK-based Prestwick Library Screening Results: P. aeruginosa (increase in extracellular AK activity) [5, 13]: 1.2
AK-based Prestwick Library Screening Results: E. cloacae (increase in extracellular AK activity) [6, 14]: 1.3
AK-based Prestwick Library Screening Results: E. coli (increase in extracellular AK activity) [7, 15]: 1.2
